The text below walks through data of patent US11771711B2, “Substituted pyridines as DNMT1 inhibitors” (GlaxoSmithKline Intellectual Property Development Limited, priority 2021, dated 2023).

Molecules are shown by their SMILES. pIC50: −log10 of the molar value. Converted amounts (≈) assume the structure as drawn.

Data set [1] addresses Full-length human DNMT1 (Homo sapiens (Human), UniProt P26358). The data set can be described thus: DNMT1 Scintillation Proximity Assay (SPA) - Assay A. It counts as biochemical. The conditions noted are these: footnote a: DNMT1 full length. As for the experimental part:
DNMT1 Scintillation Proximity Assay (SPA)—Assay A (Full-Length Human DNMT1)
This assay used Scintillation Proximity technology in a signal increase format to evaluate the potency of compounds. Full-length human DNMT1, hemi-methylated DNA duplex*, and tritiated SAM were utilized to monitor activity. Assay plate creation consisted of the following parameters: 500 nL of an 11 pt, 3-fold serial dilution of compound was stamped into a 96 well Costar plate (#3884). Assay buffer mix was made on the day of assay consisting of: 20 mM Tris pH 7.5, 1 mM DTT, 1 mM EDTA, and 5% glycerol. A 2× enzyme mix was then prepared consisting of 30 nM DNMT1 protein (full length human DNMT, made in house) in assay buffer. The 2× substrate mix was made last, and consisted of 160 nM 40mer hemi-methylated DNA*, 0.48 μM ^3H-SAM, and 2.92 μM cold SAM in assay buffer (^3H-SAM is added last). The quench (1 mM SAH) was made in bulk and frozen at −20 until the time of use. Ten uL of the 2× substrate mix was added to the entire plate using a multichannel electronic pipette. Plate was shaken for at least 10s between additions to ensure mixing. Next, 20 uL of 2× quench mix was added to column 12 using a multichannel pipette (shake plate). Using a multichannel electronic pipette, 10 uL of 2× enzyme mix was added to the full plate starting with column […] (column 12 last to avoid pre-quench carryover). Plates were incubated on the shaker for 30 minutes with the plate covered. At the end of the incubation period, 20 uL of quench mix were added to all wells except column 12 (shake plate) followed by the addition of 20 uL of 3 mg/mL PerkinElmer PEI PVT SPA Beads (Cat. #RPNQ0097) diluted in DNAse free water and allowed to shake for at least 30 minutes. Plates were sealed with a clear seal and centrifuged at 500 rpm for 1 min. Plates were read on a MicroBeta (Perkin Elmer, read for ^3H (1 min/well).
Microsoft Excel was used to analyze the data up to Vi/Vo and GraFit was used to fit the data. Responses were normalized to the uninhibited (DMSO) and pre-quenched controls within each plate. Dose-response curves were analyzed using a three-parameter logistic fit with Ymin constrained to 0 and results were expressed as IC50 values.
Final assay conditions: 20 mM Tris (Hampton Research—HR-937-06), pH 7.5, 1 mM DTT (Invitrogen—P2325), 1 mM EDTA (Invitrogen—AM9260G), 5% Glycerol (Teknova—G1796), 0.02% Pluronic F127 (Life Technologies—P6866), 15 nM DNMT1 (full length human DNMT1—GSK made in-house), 240 nM ^3H-SAM (PerkinElmer—NET155H001MC), 1460 nM cold SAM (New England Biolabs—B9003S) and 80 nM 40-mer hemi-methylated DNA Oligonucleotide (Integrated DNA Technologies—custom), 1 mM SAH (Sigma A9384), and 1 mg/mL PEI PVT SPA Beads (Perkin Elmer RPNQ0097) resuspended in water.

Data set [2] in a line: physchem. The settings on record: FaSSIF buffer, pH 6.5, fassif, thermodynamic from solid.
Description: Solubility of Solid Compounds in Fasted Simulated Intestinal Fluid
The solubility of solid compounds in Fasted Simulated Intestinal Fluid (FaSSIF) was determined at pH 6.5 after 4 hour equilibration at room temperature (using procedures described in Sou, T.; Bergström, C. A. S. Automated assays for thermodynamic (equilibrium) solubility determination. Drug Discovery Today: Technologies 2018, 27, 11-19). 1 ml of FaSSIF buffer (3 mM Sodium taurocholate, 0.75 mM lecithin in sodium phosphate buffer at pH6.5) was added to manually weighed 1 mg of solid compound in a 4 ml vial. The resulting suspension was shaken at 900 rpm for 4 hours at room temperature and then transferred to a Multiscreen HTS, 96-well solubility filter plate to separate the residual solid and the filtrate. Quantification of the compound concentration in the filtrate was performed by HPLC-UV using single point calibration of a known concentration of the compound in DMSO. […] The dynamic range of the assay was 1-1000 μg/ml.
The nature of data set [3]: Rat pharmacokinetic study (oral bioavailability). It counts as in vivo. The conditions noted are these: blood, PO gavage vs 60 minute IV infusion, 5% DMA/15% Solutol. On the procedure:
Pharmacokinetic Studies: All studies were conducted in accordance with the GSK Policy on the Care, Welfare and Treatment of Laboratory Animals and were reviewed either by the Institutional Animal Care and Use Committee at GSK or by the ethical review process at the institution where the studies were performed. Pharmacokinetic studies for example 2 were conducted using non-fasted, Male Wistar Han rats, n=3/dose route and for reference compound 4, non-fasted male Sprague-Dawley rats, n=2/dose route in a non-crossover design. Compounds were prepared as solutions in 5% DMA/15% Solutol and administered as a 60 minute IV infusion and PO gavage. Blood samples were collected serially at multiple time points from pre-dose through 24 hours post dose and the analytes were quantified by LC/MS/MS. The percent bioavailability was calculated by comparison of the dose normalized Area Under the Curve (DNAUC) obtained from PO dosing with the DNAUC from the IV route [(PO DNAUC/IV DNAUC)*100].

Data set [4] addresses Human truncated DNMT1(601-1600) (Homo sapiens (Human), UniProt P26358). Briefly: DNMT1 Scintillation Proximity Assay (SPA) - Assay B. The settings on record: footnote b: DNMT1 truncate. It counts as biochemical. On the procedure: DNMT1 Scintillation Proximity Assay (SPA)—Assay B (Human Truncated DNMT1(601-1600))
This assay used Scintillation Proximity technology in a signal increase format to evaluate the potency of compounds. Human truncated DNMT1(601-1600), single hemi-methylated CpG site oligonucleotide, and Tritiated SAM were utilized to monitor activity. Assay plate creation consisted of the following parameters: 10 mM Compounds (11-point, 3-fold serial dilution) were stamped at 100 nL per well (100× in 100% DMSO) into a Griener white LV 384 well plate (#784075). Assay buffer mix was made on the day of assay consisting of: base buffer: (500 mM Hepes, ph 8, 1M MgCl2 made in advance, stored at room temp as a stock), 10% NP40-Surfact AMPS, 10% Ultrapure BSA 50 mg/ml, and 2M DTT (DL-Dithiolthreitol). The 2× enzyme mix was then prepared consisting of: DNMT1 protein (truncate human DNMT1—601-1600, made in house at 16.876 uM stock concentration) added to the assay buffer mix. […] Plates were read on a Viewlux (PerkinElmer, 613 nm emission filter, 300 sec dual-exposure, (10 min. total read time)).
The Abase database was used to analyze the data. […] Dose-response curves were analyzed using a four-parameter logistic fit and results were expressed as pIC50 values. […]

For data set [5] the following is noted: internal standards tested alongside in FaSSIF assay; cited from earlier work.

Chain of Full-length human DNMT1 (P26358 whole entry): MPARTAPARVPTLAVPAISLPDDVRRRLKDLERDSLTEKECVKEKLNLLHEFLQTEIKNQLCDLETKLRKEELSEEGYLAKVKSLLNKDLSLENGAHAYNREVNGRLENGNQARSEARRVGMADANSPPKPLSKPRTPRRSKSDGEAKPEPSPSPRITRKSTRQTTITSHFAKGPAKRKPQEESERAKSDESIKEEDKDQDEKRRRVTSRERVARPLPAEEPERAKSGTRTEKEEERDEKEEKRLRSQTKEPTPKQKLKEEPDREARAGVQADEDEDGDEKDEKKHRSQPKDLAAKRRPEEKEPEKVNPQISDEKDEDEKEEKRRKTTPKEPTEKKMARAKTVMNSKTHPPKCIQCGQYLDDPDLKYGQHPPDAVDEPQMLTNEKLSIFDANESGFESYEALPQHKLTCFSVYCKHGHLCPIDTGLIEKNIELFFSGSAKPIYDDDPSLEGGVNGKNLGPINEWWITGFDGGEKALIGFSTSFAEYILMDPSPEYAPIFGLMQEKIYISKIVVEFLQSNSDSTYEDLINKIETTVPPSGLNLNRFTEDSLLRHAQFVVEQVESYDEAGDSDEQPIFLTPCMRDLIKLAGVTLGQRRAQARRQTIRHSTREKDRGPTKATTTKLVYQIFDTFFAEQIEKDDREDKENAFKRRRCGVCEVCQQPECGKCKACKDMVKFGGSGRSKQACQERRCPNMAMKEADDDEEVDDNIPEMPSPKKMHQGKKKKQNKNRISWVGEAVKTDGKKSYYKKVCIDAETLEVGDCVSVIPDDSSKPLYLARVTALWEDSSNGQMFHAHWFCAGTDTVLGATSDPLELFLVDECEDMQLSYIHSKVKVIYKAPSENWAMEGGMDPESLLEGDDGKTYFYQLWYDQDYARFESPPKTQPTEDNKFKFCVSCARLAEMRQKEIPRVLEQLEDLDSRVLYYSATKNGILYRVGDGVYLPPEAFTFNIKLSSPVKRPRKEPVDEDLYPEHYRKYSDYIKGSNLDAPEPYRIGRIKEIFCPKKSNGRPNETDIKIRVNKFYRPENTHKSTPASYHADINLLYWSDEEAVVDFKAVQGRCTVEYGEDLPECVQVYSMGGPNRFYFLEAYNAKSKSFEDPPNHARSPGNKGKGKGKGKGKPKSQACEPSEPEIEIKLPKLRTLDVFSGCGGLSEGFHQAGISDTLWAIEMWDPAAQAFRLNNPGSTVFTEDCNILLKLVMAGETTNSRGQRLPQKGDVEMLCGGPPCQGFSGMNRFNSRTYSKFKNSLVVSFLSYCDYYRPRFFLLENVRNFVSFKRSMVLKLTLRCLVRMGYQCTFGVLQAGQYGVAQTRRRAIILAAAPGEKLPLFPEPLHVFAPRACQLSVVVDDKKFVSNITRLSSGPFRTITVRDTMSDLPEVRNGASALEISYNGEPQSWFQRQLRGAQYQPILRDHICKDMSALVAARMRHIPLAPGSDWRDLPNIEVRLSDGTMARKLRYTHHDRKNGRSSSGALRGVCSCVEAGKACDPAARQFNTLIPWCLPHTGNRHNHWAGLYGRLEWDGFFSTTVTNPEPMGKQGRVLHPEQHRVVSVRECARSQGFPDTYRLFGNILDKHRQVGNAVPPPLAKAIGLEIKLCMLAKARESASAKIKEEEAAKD
Chain of Human truncated DNMT1(601-1600) (P26358 601-1600): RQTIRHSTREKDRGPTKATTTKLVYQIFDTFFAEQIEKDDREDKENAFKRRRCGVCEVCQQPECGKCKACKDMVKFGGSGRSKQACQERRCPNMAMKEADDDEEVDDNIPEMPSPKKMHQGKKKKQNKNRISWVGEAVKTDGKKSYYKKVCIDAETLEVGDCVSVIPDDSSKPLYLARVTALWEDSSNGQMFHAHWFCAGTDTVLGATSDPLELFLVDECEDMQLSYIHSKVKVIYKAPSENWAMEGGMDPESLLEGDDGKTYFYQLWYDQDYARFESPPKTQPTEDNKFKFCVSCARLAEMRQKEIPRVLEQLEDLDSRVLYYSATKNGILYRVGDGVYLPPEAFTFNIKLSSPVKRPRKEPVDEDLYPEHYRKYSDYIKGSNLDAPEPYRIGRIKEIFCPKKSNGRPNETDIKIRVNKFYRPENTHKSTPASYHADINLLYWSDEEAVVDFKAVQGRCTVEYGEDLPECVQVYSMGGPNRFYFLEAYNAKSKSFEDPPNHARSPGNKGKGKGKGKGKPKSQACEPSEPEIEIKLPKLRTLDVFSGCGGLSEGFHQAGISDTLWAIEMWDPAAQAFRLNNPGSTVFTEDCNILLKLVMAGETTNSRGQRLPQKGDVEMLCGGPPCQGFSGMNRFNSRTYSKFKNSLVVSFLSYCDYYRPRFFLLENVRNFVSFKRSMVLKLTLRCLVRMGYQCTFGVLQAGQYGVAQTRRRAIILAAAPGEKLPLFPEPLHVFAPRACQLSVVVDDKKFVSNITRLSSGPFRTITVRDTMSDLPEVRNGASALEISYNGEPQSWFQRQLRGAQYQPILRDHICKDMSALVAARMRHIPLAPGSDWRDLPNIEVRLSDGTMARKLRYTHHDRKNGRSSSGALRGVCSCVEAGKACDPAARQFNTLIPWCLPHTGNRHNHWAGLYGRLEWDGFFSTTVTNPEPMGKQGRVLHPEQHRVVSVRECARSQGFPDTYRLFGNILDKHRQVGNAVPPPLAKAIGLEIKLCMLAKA

For the compound `CCc1c(C#N)c(SC(C(N)=O)c2ccc(OS(C)(=O)=O)cc2)nc(N(C)C)c1C#N` (racemic) [Example 4, 4-(2-amino-1-((3,5-dicyano-6-(dimethylamino)-4-ethylpyridin-2-yl)thio)-2-oxoethyl)phenyl methanesulfonate], the pIC50 in data set [1] was 6.97. Further, in data set [2], the solubility at 4 h is below 1 µg/mL. As for `CCc1c(C#N)c(S[C@@H](C(N)=O)c2ccc(OS(C)(=O)=O)cc2)nc(N(C)C)c1C#N` [Example 2, (R)-4-(2-amino-1-((3,5-dicyano-6-(dimethylamino)-4-ethylpyridin-2-yl)thio)-2-oxoethyl)phenyl methanesulfonate], in data set [1], the pIC50 is 7.27. In data set [2], this compound yielded a solubility at 4 h of 1 µg/mL. Besides, in data set [3] (non-fasted male Wistar Han rats, n=3/dose route), the bioavailability was 40%. `CCc1c(C#N)c(SC(C(=O)NP(=O)(O)O)c2ccc(OS(C)(=O)=O)cc2)nc(N(C)C)c1C#N` (stereo not drawn) [Example 3, (2-((3,5-dicyano-6-(dimethylamino)-4-ethylpyridin-2-yl)thio)-2-(4-((methylsulfonyl)oxy)phenyl)acetyl)phosphoramidic acid] had a pIC50 in data set [1] of 5.28. Moreover, the solubility at 4 h in data set [2] was above 1000 µg/mL. Compound `CCc1c(C#N)c(S[C@@H](C(N)=O)c2ccccc2)nc(N(C)C)c1C#N` [Reference compound 1, reference compound] displayed a solubility at 4 h in data set [2] below 1 µg/mL.

Consider `CCc1c(C#N)c(S[C@@H](C(N)=O)c2ccccc2)nc(N2CC[C@H](O)C2)c1C#N` [Reference compound 2, reference compound], for which, in data set [1], the pIC50 is 6.81. This compound also gave a solubility at 4 h in data set [2] of 2.7 µg/mL (≈ 6.63 µM). In turn, `CCc1c(C#N)c(SC(C(N)=O)c2ccc(Cl)cc2)nc(N(C)C)c1C#N` (stereo not drawn) [Reference compound 3] gave a pIC50 in data set [4] of 6.20. For `CCc1c(C#N)c(S[C@@H](C(N)=O)c2ccc(OC)cc2)nc(N2CC[C@H](O)C2)c1C#N` [Reference compound 4, reference compound], the pIC50 in data set [4] was 7.10. The same compound returned a solubility at 4 h in data set [2] of 4 µg/mL (≈ 9.14 µM). Also, the bioavailability in data set [3] (non-fasted male Sprague-Dawley rats, n=2/dose route) turned out to be 6.1%. As for `CC(=O)CC(c1ccccc1)c1c(O)c2ccccc2oc1=O` (stereo not drawn) [Warfarin], the “known solubility of internal standards” value in data set [5] is 140 µg/mL.
